Assay results published in ChEMBL document CHEMBL1201862, “PubChem BioAssay data set” (2004).
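Method: 48-hour compound exposure of cells in 96-well plates, five concentrations, linear interpolation of endpoints. GI50: concentration for 50% inhibition of growth.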 Activity calls are given as the source filed them. Cut-off read from the data, not from the text of the source: active = GI50 up to about 1.1 µM and inactive = higher.

Key:
Assay in all cases: inhibition of tumour cell growth, NCI panel, 48 h
[1] = test system: NCI/ADR-RES
[2] = test system: M14
[3] = test system: SNB-75
[4] = test system: MDA-MB-231
[5] = test system: SF-295
[6] = test system: BT-549
[7] = test system: HCC 2998
[8] = test system: PC-3
[9] = test system: A549
[10] = test system: NCI-H522
[11] = test system: NCI-H23
[12] = test system: HOP-92
[13] = test system: HL-60
[14] = test system: T47D
[15] = test system: OVCAR-3
[16] = test system: SK-OV-3
[17] = test system: SR
[18] = test system: SN12C
[19] = test system: MDA-MB-435
[20] = test system: SK-MEL-5

SMILES	GI50 [1]	GI50 [2]	GI50 [3]	GI50 [4]	GI50 [5]	GI50 [6]	GI50 [7]	GI50 [8]	GI50 [9]	GI50 [10]	GI50 [11]	GI50 [12]	GI50 [13]	GI50 [14]	GI50 [15]	GI50 [16]	GI50 [17]	GI50 [18]	GI50 [19]	GI50 [20]
COc1cc(C2c3cc4c(cc3OC(N3CCCC3)C2C)OCO4)cc(OC)c1OC (stereo not given)	0.316 µM (active)	0.34 µM (active)	0.443 µM (active)	0.697 µM (active)	0.303 µM (active)	0.515 µM (active)	1.34 µM (inactive)	0.524 µM (active)	0.989 µM (active)	0.548 µM (active)	0.548 µM (active)	0.973 µM (active)	0.355 µM (active)	63.1 µM (inactive)	0.221 µM (active)	0.628 µM (active)	0.32 µM (active)	0.757 µM (active)	0.177 µM (active)	0.344 µM (active)
COc1cc(/C=C/C(=O)c2c([O-])on[n+]2-c2ccccc2)ccc1O	2.48 µM (inactive)	3.43 µM (inactive)	2.5 µM (inactive)	2.98 µM (inactive)	7.89 µM (inactive)	2.99 µM (inactive)	2.27 µM (inactive)	6.58 µM (inactive)	4.09 µM (inactive)	1.73 µM (inactive)	2.69 µM (inactive)	2.4 µM (inactive)	0.853 µM (active)	2.77 µM (inactive)	2.29 µM (inactive)	3.73 µM (inactive)	1.53 µM (inactive)	2.03 µM (inactive)	2.75 µM (inactive)	3.78 µM (inactive)
O=[N+]([O-])c1ccc(C2Nn3c(nnc3-c3cccc([N+](=O)[O-])c3)S2)cc1 (stereo not given)	> 100 µM (inactive)	> 100 µM (inactive)	> 100 µM (inactive)	> 100 µM (inactive)	> 100 µM (inactive)	> 100 µM (inactive)	> 100 µM (inactive)	> 100 µM (inactive)	> 100 µM (inactive)	> 100 µM (inactive)	> 100 µM (inactive)	> 100 µM (inactive)	89.3 µM (inactive)	49.4 µM (inactive)	> 100 µM (inactive)	> 100 µM (inactive)	84.1 µM (inactive)	> 100 µM (inactive)	51.5 µM (inactive)	53.6 µM (inactive)
CC(NNC(=O)c1cc[n+]([BH2-]C#N)cc1)c1cccc(C(F)(F)F)c1 (stereo not given)	> 100 µM (inactive)	37.9 µM (inactive)	> 100 µM (inactive)	> 100 µM (inactive)	50.2 µM (inactive)	> 100 µM (inactive)	> 100 µM (inactive)	44 µM (inactive)	86.9 µM (inactive)	4.55 µM (inactive)	27.4 µM (inactive)	> 100 µM (inactive)	34.5 µM (inactive)	40.2 µM (inactive)	89.3 µM (inactive)	26.7 µM (inactive)	52.1 µM (inactive)	> 100 µM (inactive)	> 100 µM (inactive)	72.1 µM (inactive)
